#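 Five compound concentrations were applied to cells in 96-well plates for 48 hours; endpoints were derived by simple linear interpolation of the resulting dose-response curve. GI50 is the concentration that inhibits growth by half. TGI marks complete inhibition of growth.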
# Key:
# Assay in all cases: growth of human tumour cells (NCI), 48 h
# [1] = tested on: SR leukemia
# [2] = tested on: OVCAR-8 ovarian
# [3] = tested on: SNB-19 CNS
# [4] = tested on: SF-268 CNS
# [5] = tested on: K-562 leukemia
# [6] = tested on: OVCAR-4 ovarian
# [7] = tested on: ACHN renal
# [8] = tested on: NCI-H460 lung
# [9] = tested on: BT-549 breast
# [10] = tested on: SW-620 colon
# [11] = tested on: UACC-62 melanoma
# [12] = tested on: HCT-116 colon
# [13] = tested on: U251 CNS
# [14] = tested on: MDA-MB-231 breast
# [15] = tested on: OVCAR-5 ovarian
# [16] = tested on: 786-0 renal
# [17] = tested on: HCC-2998 colon
# [18] = tested on: MALME-3M melanoma
# [19] = tested on: NCI/ADR-RES ovarian
# [20] = tested on: T-47D breast
# [21] = tested on: SF-295 CNS
# [22] = tested on: RXF 393 renal
# [23] = tested on: TK-10 renal
# [24] = tested on: CCRF-CEM leukemia
# [25] = tested on: EKVX NSCLC
# [26] = tested on: RPMI-8226 leukemia
# [27] = tested on: MCF7 breast
# [28] = tested on: NCI-H23 lung
# [29] = tested on: SN12C renal
# [30] = tested on: HOP-62 NSCLC
# [31] = tested on: MOLT-4 leukemia
# [32] = tested on: KM12 colon
# [33] = tested on: A549 NSCLC
# [34] = tested on: SK-OV-3 ovarian
# [35] = tested on: HS 578T breast
# [36] = tested on: HCT-15 colon
# [37] = tested on: M14 melanoma
# [38] = tested on: SK-MEL-5 melanoma
# [39] = tested on: SK-MEL-28 melanoma
# [40] = tested on: MDA-MB-435
# [41] = tested on: A498 renal
# [42] = tested on: CAKI-1 renal
# [43] = tested on: PC-3 prostate
# [44] = tested on: SF-539 CNS
# [45] = tested on: OVCAR-3 ovarian
# [46] = tested on: UACC-257 melanoma
# [47] = tested on: HOP-92 NSCLC
# [48] = tested on: LOX IMVI melanoma
# [49] = tested on: DU-145 prostate
# [50] = tested on: COLO 205 colon
# [51] = tested on: SNB-75 CNS
# [52] = tested on: HT29 colon
# [53] = tested on: UO-31 renal
# [54] = tested on: HL-60(TB) leukemia
# [55] = tested on: SK-MEL-2 melanoma
# [56] = tested on: NCI-H226 lung
structure (smiles),measurement,setting,value
Cc1ccc(/C(=C/C=C(C#N)C#N)Sc2ccc(Cl)cc2)cc1,GI50,[1],2.32 µM
same,TGI,[1],6.14 µM
same,GI50,[2],11.4 µM
same,TGI,[2],32.4 µM
same,GI50,[3],11 µM
same,TGI,[3],25.3 µM
same,GI50,[4],9.8 µM
same,TGI,[4],35.7 µM
same,GI50,[5],3.34 µM
same,TGI,[5],18.4 µM
same,GI50,[6],11.3 µM
same,TGI,[6],> 100 µM
same,GI50,[7],4.62 µM
same,TGI,[7],36.9 µM
same,GI50,[8],9.24 µM
same,TGI,[8],29.7 µM
same,GI50,[9],3.37 µM
same,TGI,[9],9.16 µM
same,GI50,[10],3.53 µM
same,TGI,[10],10.7 µM
same,GI50,[11],5.3 µM
same,TGI,[11],23.1 µM
same,GI50,[12],2.24 µM
same,TGI,[12],3.97 µM
same,GI50,[13],3.65 µM
same,TGI,[13],14.8 µM
same,GI50,[14],10.5 µM
same,TGI,[14],28.4 µM
same,GI50,[15],11.4 µM
same,TGI,[15],25.5 µM
same,GI50,[16],1.9 µM
same,TGI,[16],4.57 µM
same,GI50,[17],18 µM
same,TGI,[17],31.9 µM
same,GI50,[18],12.2 µM
same,TGI,[18],30.5 µM
same,GI50,[19],5.99 µM
same,TGI,[19],19.9 µM
same,GI50,[20],18.8 µM
same,TGI,[20],56.5 µM
same,GI50,[21],4.07 µM
same,TGI,[21],16.8 µM
same,GI50,[22],11.9 µM
same,TGI,[22],39.2 µM
same,GI50,[23],2.12 µM
same,TGI,[23],7.31 µM
same,GI50,[24],2.41 µM
same,TGI,[24],17.4 µM
same,GI50,[25],22.3 µM
same,TGI,[25],49.4 µM
same,GI50,[26],2.34 µM
same,TGI,[26],7.96 µM
same,GI50,[27],5.24 µM
same,TGI,[27],> 100 µM
same,GI50,[28],9.54 µM
same,TGI,[28],23.4 µM
same,GI50,[29],4.32 µM
same,TGI,[29],18 µM
same,GI50,[30],6.4 µM
same,TGI,[30],15.6 µM
same,GI50,[31],1.85 µM
same,TGI,[31],14.3 µM
same,GI50,[32],5.5 µM
same,TGI,[32],26.7 µM
same,GI50,[33],12.4 µM
same,TGI,[33],28 µM
same,GI50,[34],16.4 µM
same,TGI,[34],36.1 µM
same,GI50,[35],14.3 µM
same,TGI,[35],58.4 µM
same,GI50,[36],4.12 µM
same,TGI,[36],23.1 µM
same,GI50,[37],5.44 µM
same,TGI,[37],17.7 µM
same,GI50,[38],12 µM
same,TGI,[38],25.9 µM
same,GI50,[39],10.6 µM
same,TGI,[39],46.8 µM
same,GI50,[40],3.02 µM
same,TGI,[40],10.7 µM
same,GI50,[41],19.4 µM
same,TGI,[41],34.8 µM
same,GI50,[42],2.03 µM
same,TGI,[42],5.3 µM
same,GI50,[43],3.65 µM
same,TGI,[43],14.7 µM
same,GI50,[44],2.66 µM
same,TGI,[44],5.45 µM
same,GI50,[45],2.31 µM
same,TGI,[45],9.34 µM
same,GI50,[46],9.04 µM
same,TGI,[46],22 µM
same,GI50,[47],15 µM
same,TGI,[47],56.6 µM
same,GI50,[48],2.57 µM
same,TGI,[48],5.98 µM
same,GI50,[49],3.95 µM
same,TGI,[49],11.3 µM
same,GI50,[50],7.58 µM
same,TGI,[50],30.4 µM
CCN(CC)CCN1CC(O)=C(c2nc(-c3ccc(Cl)cc3)cs2)C1=N,GI50,[1],1.43 µM
same,TGI,[1],3.7 µM
same,GI50,[2],5.61 µM
same,TGI,[2],> 100 µM
same,GI50,[3],2.1 µM
same,TGI,[3],4.5 µM
same,GI50,[4],1.87 µM
same,TGI,[4],3.93 µM
same,GI50,[5],1.42 µM
same,TGI,[5],3.04 µM
same,GI50,[6],18.3 µM
same,TGI,[6],> 100 µM
same,GI50,[7],3.14 µM
same,TGI,[7],12 µM
same,GI50,[8],2.04 µM
same,TGI,[8],4.29 µM
same,GI50,[9],5.17 µM
same,TGI,[9],21.2 µM
same,GI50,[10],1.91 µM
same,TGI,[10],3.8 µM
same,GI50,[11],1.87 µM
same,TGI,[11],3.53 µM
same,GI50,[12],1.78 µM
same,TGI,[12],4.16 µM
same,GI50,[13],1.68 µM
same,TGI,[13],3.17 µM
same,GI50,[14],1.97 µM
same,TGI,[14],4.1 µM
same,GI50,[15],6.38 µM
same,TGI,[15],31.3 µM
same,GI50,[16],1.62 µM
same,TGI,[16],3.19 µM
same,GI50,[17],1.95 µM
same,TGI,[17],3.91 µM
same,GI50,[18],1.69 µM
same,TGI,[18],3.22 µM
same,GI50,[51],1.6 µM
same,TGI,[51],3.4 µM
same,GI50,[52],2 µM
same,TGI,[52],6.27 µM
same,GI50,[19],9.12 µM
same,TGI,[19],> 100 µM
same,GI50,[20],2.19 µM
same,TGI,[20],5.11 µM
same,GI50,[21],1.8 µM
same,TGI,[21],3.49 µM
same,GI50,[23],2.86 µM
same,TGI,[23],5.65 µM
same,GI50,[24],2 µM
same,TGI,[24],4.99 µM
same,GI50,[25],9.36 µM
same,TGI,[25],33.9 µM
same,GI50,[26],2 µM
same,TGI,[26],5.09 µM
same,GI50,[27],1.42 µM
same,TGI,[27],3.36 µM
same,GI50,[28],7.39 µM
same,TGI,[28],49.9 µM
same,GI50,[29],5.25 µM
same,TGI,[29],> 100 µM
same,GI50,[30],1.83 µM
same,TGI,[30],3.99 µM
same,GI50,[31],1.87 µM
same,TGI,[31],4.42 µM
same,GI50,[32],2.72 µM
same,TGI,[32],8.09 µM
same,GI50,[33],3.62 µM
same,TGI,[33],17.8 µM
same,GI50,[53],3.83 µM
same,TGI,[53],20.2 µM
same,GI50,[54],1.5 µM
same,TGI,[54],3.5 µM
same,GI50,[34],4.76 µM
same,TGI,[34],25.2 µM
same,GI50,[35],1.5 µM
same,TGI,[35],3.59 µM
same,GI50,[55],16.9 µM
same,TGI,[55],> 100 µM
same,GI50,[36],1.58 µM
same,TGI,[36],3.42 µM
same,GI50,[56],1.85 µM
same,TGI,[56],3.88 µM
same,GI50,[38],1.63 µM
same,TGI,[38],3.02 µM
same,GI50,[39],1.86 µM
same,TGI,[39],3.49 µM
same,GI50,[40],1.72 µM
same,TGI,[40],3.25 µM
same,GI50,[41],1.72 µM
same,TGI,[41],3.47 µM
same,GI50,[42],1.98 µM
same,TGI,[42],6.72 µM
same,GI50,[43],6.8 µM
same,TGI,[43],> 100 µM
same,GI50,[44],1.55 µM
same,TGI,[44],3.11 µM
same,GI50,[45],4.06 µM
same,TGI,[45],20.4 µM
same,GI50,[46],1.82 µM
same,TGI,[46],3.51 µM
same,GI50,[47],1.49 µM
same,TGI,[47],8.65 µM
same,GI50,[48],1.83 µM
same,TGI,[48],3.43 µM
same,GI50,[49],7.26 µM
same,TGI,[49],62.4 µM
same,GI50,[50],2.04 µM
same,TGI,[50],4 µM

# — PubChem BioAssay (NCI)
